Experimental data from the OligoGym collection.
After the bases stand the sugars from the 5' end (letter, count) and the backbone: PS all phosphorothioate, else s phosphorothioate and o phosphodiester by linkage. Methylation of C is not given here. e = 2'-O-(2-methoxyethyl) (MOE); k = constrained ethyl (cEt); d = 2'-deoxy (DNA); m = 2'-O-methyl

Target: HSD17B13
Details: ASO, HepaRG

Sequence	target mRNA inhibition (1 µM)	also measured
AATACCCTTGGTGGAG (sugars k3 d10 k3, PS)	16%	–
AATAGAGTCGGTCACC (sugars k3 d10 k3, PS)	58%	–
AATAGCCAGTACAGTT (sugars k3 d10 k3, PS)	46%	–
AATAGCCAGTACAGTT (sugars kkdddddddddkekek, PS)	36%	–
AATAGGAGAGTCTTTC (sugars k3 d10 k3, PS)	47%	–
AATATAGAGGGTCCAC (sugars k3 d10 k3, PS)	7%	–
AATATATACCTGTTGC (sugars k3 d10 k3, PS)	38%	–
AATATGGGATGAGGTA (sugars kkdddddddddkekek, PS)	52%	–
AATAUGGGATGAGGTA (sugars k3 d1 m1 d8 k3, PS)	38%	–
AATAUTGAGGCACTGG (sugars k3 d1 m1 d8 k3, PS)	48%	–
AATCACAAGTAAGGTA (sugars k3 d1 m1 d8 k3, PS)	31%	–
AATCACAAGTAAGGTA (sugars k3 d9 k3 e1, PS)	63%	–
AATCACAAGTAAGGTA (sugars k3 d10 k3, PS)	52%	–
AATCATGGTGTGGAGG (sugars k3 d10 k3, PS)	11%	–
AATCCCAACCAAACTT (sugars k3 d9 k3 e1, PS)	13%	–
AATTAACATTCGGCTA (sugars k3 d10 k3, PS)	38%	–
AATTATACTTTTCCGT (sugars k3 d10 k3, PS)	66%	–
AATTATGCCTTGTGGC (sugars k3 d10 k3, PS)	19%	–
AATTCACTATCTCCCT (sugars k3 d10 k3, PS)	10%	–
AATTCTAAACTAGTGG (sugars k3 d10 k3, PS)	31%	–
AATTTTCGGGTTCTTA (sugars k3 d10 k3, PS)	35%	–
ACAAAATCATGGTGTG (sugars k3 d10 k3, PS)	26%	–
ACAAGAGTTCTTGCAG (sugars k3 d10 k3, PS)	29%	–
ACAAGTGACAGCATTG (sugars k3 d10 k3, PS)	44%	–
ACAATATGGGATGAGG (sugars kkdddddddddkekek, PS)	51%	–
ACAATTAACATTCGGC (sugars k3 d10 k3, PS)	77%	target mRNA inhibition (0.02 µM): 13%; target mRNA inhibition (0.078 µM): 15%; target mRNA inhibition (0.313 µM): 43%; target mRNA inhibition (1.25 µM): 62%; target mRNA inhibition (5 µM): 79%

Sequence	target mRNA inhibition (1 µM)	also measured
ACAATTTTTCCAATCC (sugars k3 d10 k3, PS)	86%	target mRNA inhibition (0.02 µM): 9%; target mRNA inhibition (0.078 µM): 37%; target mRNA inhibition (0.313 µM): 62%; target mRNA inhibition (1.25 µM): 76%; target mRNA inhibition (5 µM): 93%
ACACCGCGCTTATTAA (sugars k3 d10 k3, PS)	7%	–
ACACTAATATTGAGGC (sugars kkdddddddddkekek, PS)	55%	–
ACAGATTGGAATGCTA (sugars kkdddddddddkekek, PS)	49%	–
ACAGTAAAATTATGCC (sugars k3 d10 k3, PS)	73%	target mRNA inhibition (0.02 µM): 0%; target mRNA inhibition (0.078 µM): 0%; target mRNA inhibition (0.313 µM): 4%; target mRNA inhibition (1.25 µM): 50%; target mRNA inhibition (5 µM): 68%
ACATCTCTGGGACCAA (sugars k3 d1 m1 d8 k3, PS)	68%	–
ACATCTCTGGGACCAA (sugars k3 d9 k3 e1, PS)	65%	–
ACATCTCTGGGACCAA (sugars k3 d10 k3, PS)	78%	–
ACATTAGCAAGCTAAG (sugars k3 d9 k3 e1, PS)	41%	–
ACATTAGCAAGCTAAG (sugars kkdddddddddkekek, PS)	23%	–
ACCAAACTTCCAGCAG (sugars k3 d10 k3, PS)	31%	–
ACCAAGAGACACCACC (sugars k3 d10 k3, PS)	41%	–
ACCAAGGCCATGACAT (sugars k3 d10 k3, PS)	17%	–
ACCAAGTAGCTTACAT (sugars k3 d10 k3, PS)	2%	–
ACCAATCCTCAGCTTT (sugars k3 d10 k3, PS)	11%	–
ACCCATTCTAACTTGA (sugars k3 d10 k3, PS)	0%	–
ACCCGCCCTTAAGTCA (sugars k3 d10 k3, PS)	48%	–
ACCGTTTTGGGCTAAT (sugars k3 d9 k3 e1, PS)	73%	–
ACCTTGAATGAGTGGT (sugars k3 d10 k3, PS)	26%	–
ACTAATATTGAGGCAC (sugars k3 d10 k3, PS)	19%	–
ACTAATATTGAGGCAC (sugars kkdddddddddkekek, PS)	27%	–
ACTACAAGAGGTTATT (sugars k3 d9 k3 e1, PS)	58%	–
ACTAGGAAGTGATCCA (sugars k3 d10 k3, PS)	58%	–
ACTCCCCAAACATGGA (sugars k3 d10 k3, PS)	48%	–
ACTGAAGGTCTGAGCT (sugars k3 d10 k3, PS)	20%	–
ACTGAGTAAACGACTC (sugars k3 d10 k3, PS)	45%	–
